We go through five molecules from PMC8838415, “Discovery of Novel Pleuromutilin Derivatives as Potent Antibacterial Agents for the Treatment of MRSA Infection” (Molecules, 2022).

For one data set, the system named is S. aureus (ATCC 29213). Put plainly: MIC and MBC, broth dilution, S. aureus ATCC 29213. In kind it is cell-based. The note with it: Staphylococcus aureus, ATCC29213. As to the method:
(§1) The synthesized pleuromutilin derivatives 8–30 were tested against four Gram-positive bacteria (MRSA ATCC 43300, S. aureus ATCC 29213 and two clinical strains of S. aureus (AD3 and 144) isolated from Guangdong Province). Tiamulin was used as the positive control in this experiment.
(§2) MIC values were tested following our previous work. The derivatives were dissolved in an aqueous solution of 2.5% tween-80 and 2.5% DMSO to make a solution with a concentration of 1000 µg/mL. The solution was diluted 12 times with MH broth to give a concentration range of 32–0.01 µg/mL. The bacteria (5 × 10^5 CFU/mL) were added in each well. For each compound concentration, three parallel experiments were set. The 96-well plate was incubated for 22–26 h at 37 °C. The MIC value was recorded as the minimal concentration that inhibits the visible growth of tested bacteria completely.
(§3) The MBC of these pleuromutilin derivatives were tested according to a previously reference. […] Then, the values of MBC were determined by laying 100 μL aliquots from the wells onto the MH agar plates without visible growth. The MH agar plate was cultured for a further 22–26 h at 37 °C.
Background: Dilution methods test growth across graded concentrations, often in twofold steps.

Data set [1] relates to methicillin-resistant S. aureus (ATCC 43300). In words: MIC and MBC, broth dilution, MRSA ATCC 43300. Format: cell-based. The note with it: Staphylococcus aureus. As to the method:
as §1, §2, §3

Another data set concerns 50S ribosome. In words: SPR interaction and affinity analysis. The note with it: 4 °C; for Avg ka / Avg kd: 1:1 Langmuir binding; for Kd: KD = Kd/Ka. In kind it is binding, S. aureus ATCC 43300. Here is the method: S. aureus ATCC 43300 was used to prepare the 50S ribosomal subunit the same way as described previously. Cells were grown overnight in Brain Heart Infusion broth at 37 °C and harvested for 1.5 h at an OD600. Cells were washed with 10 mM Tris-HCl twice at pH = 7.5, and resuspended in 5 mL buffer A (20 mM HEPES-HCl pH = 7.5, 21 mM Mg(OAc)2, 100 mM NH4Cl, 1 mM DTT, 1 mM EDTA). Cells were broken by an ultrasound crusher. The lysate was centrifuged for 90 min at 20,000× g to clear cell debris.
The solution was layered on a sucrose cushion of 15 mL (10 mM Hepes-KOH pH 7.5, 25 mM Mg(OAc)2, 500 mM KCl, […], 1 mM DTT, 0.5 mM EDTA). Centrifugation was carried out for 15 h at 45,000 rpm using an ultracentrifuge Beckman (Beckman Coulter, Shanghai, China), Type 70Ti rotor. The crude ribosome pellet was resuspended in buffer E (10 mM Hepes-KOH pH 7.5, 10 mM Mg(OAc)2, 100 mM KCl, 1 mM DTT, 0.5 mM EDTA), then layered on 9 mL of 7–30% sucrose gradient and centrifuged in an ultracentrifuge Beckman, type SW40Ti rotor at 17,100 rpm for 15 h. The gradient was analyzed on the AKTA explorer system (Amersham, UK). The fractions corresponding to the 50S ribosomal subunit were collected and further subjected to precipitation by PEG 20,000. The 50S ribosomal subunit pellet was gently dissolved in 200 µL of storage buffer (10 mM HEPES-HCl pH = 7.5, 10 mM Mg(OAc)2, 15 mM KCl, 60 mM NH4Cl, 1 mM DTT) and stored at −80 °C.
SPR affinity analysis was performed on the bScreen LB 991 Label-free Microarray System (Berthold Technologies, Black Forest, Germany) at 4 °C and Biodot AD-1520 Array Printer (BIODOT Inc., Irvine, CA, USA) with a Photo-cross-linker SensorCHIP™. Concentrations of each compound were diluted to 100 μM with DMSO as the printing working solution for immobilization. A Biodot AD-1520 Array Printer (BIODOT Inc., CA, USA) was used to control the photo-cross-linker sensor chip and print samples. Each sample was printed four times. In order to check the chip quality and check whether the detection system works, DMSO was used as a system-negative control and rapamycin as a positive control. All positive control dots were divided into four groups and printed on the four corners of the sensor chip. The sensor chip was dried in vacuum after the array print and quickly transferred to a spectra radiator for a photo cross-linking reaction. The sensor chip was washed with C2H5OH, DMF and H2O in turn and evaporated in a N2 atmosphere for 15 min. Then, the Flowcell Cover were assembled.
The 50S ribosome was diluted separately to 200 nM, 400 nM, 800 nM, 1600 nM and 3200 nM with PBST (pH = 7.4, 0.1% Tween 20). Different concentrations of ribosome solutions were injected at a flow rate of 0.5 μL⋅s^−1 for 600 s at the associating stage at 4 °C, followed by PBST at a flow rate of 0.5⋅μL·s^−1 for 360 s at each dissociating stage. Then, the surface was regenerated with Glycine-HCl (pH = 2.0) at a flow rate of 2⋅μL·s^−1 for 300 s.
The raw data of the binding process of compounds and the 50S ribosome were recorded in real time. We compared the response unit (RU) of surface resonance to determine the different binding affinity between each sample dot. The process and analysis of association rate constants (Ka) and dissociation rate constants (Kd) and the equilibrium dissociation constant (KD, Kd/Ka) were performed using the data analysis software of the bScreen LB 991 Label-free Microarray System according to a single-site binding model (1:1 Langmuir binding) with mass transfer limitations for binding kinetics determination.

The test system of a further data set is S. aureus (AD3). Put plainly: MIC and MBC, broth dilution, S. aureus AD3. In kind it is cell-based. The note with it: Staphylococcus aureus; S. aureus AD3 (clinical strain). Here is the method:
as §1, §2, §3

Another data set relates to S. aureus (144). In words: MIC and MBC, broth dilution, S. aureus 144. In kind it is cell-based. To be noted: Staphylococcus aureus; S. aureus 144 (clinical strain). Here is the method: as §1, §2, §3
The next data set has as its system MRSA. In words: Neutropenic murine thigh infection model. In kind it is in vivo, mice. To be noted: 20 mg/kg intravenously, 24 h, compared to the no-drug control group. Here is the method: The neutropenic murine thigh infection model experiment was performed as described in the literature. Six-week-old SPF-ICR female mice weighing 24–28 g were used for this study. The mice were injected with cyclophosphamide (Mead Johnson Pharmaceuticals, Evansville, Indiana—IN, USA) at a dose of 150 mg/kg 4 days and at a dose of 100 mg/kg 1 day before the experiment to reduce neutrophils and achieve immunosuppression (<0.1 × 10^9/L). A total of 0.1 mL MH broth (MRSA concentration approximately 10^7 CFU/mL) was injected into the posterior thigh of mice to establish the infection model. After the thighs of the mice were infected for 2 h, these mice were randomly divided into 3 groups (3 per group). […] A total of 24 h after the completion of the drug, the mice were euthanized and their thigh tissues were collected. Then, their thigh tissues were weighed and homogenized, respectively, in 3 mL of iced sterile saline. Tissue homogenate was serially diluted 10-fold and plated on MH agar. The resulting bacterial colonies were determined after incubation for 24 h.

A further data set concerns the target CYP3A4 (Homo sapiens, UniProt P08684). The note with it: read-out: IC50 CYP3A4, cited from earlier work.
The test system of a further data set is MRSA ATCC 43300. Set-up: method as in PMID 33137559. To be noted: cited from earlier work.

Each structure is given as a SMILES string. Values after ≈ are worked out from the molar mass of the structure shown. Like-named read-outs stand apart in the source and are kept apart here.

Sequence of CYP3A4 (P08684 whole entry): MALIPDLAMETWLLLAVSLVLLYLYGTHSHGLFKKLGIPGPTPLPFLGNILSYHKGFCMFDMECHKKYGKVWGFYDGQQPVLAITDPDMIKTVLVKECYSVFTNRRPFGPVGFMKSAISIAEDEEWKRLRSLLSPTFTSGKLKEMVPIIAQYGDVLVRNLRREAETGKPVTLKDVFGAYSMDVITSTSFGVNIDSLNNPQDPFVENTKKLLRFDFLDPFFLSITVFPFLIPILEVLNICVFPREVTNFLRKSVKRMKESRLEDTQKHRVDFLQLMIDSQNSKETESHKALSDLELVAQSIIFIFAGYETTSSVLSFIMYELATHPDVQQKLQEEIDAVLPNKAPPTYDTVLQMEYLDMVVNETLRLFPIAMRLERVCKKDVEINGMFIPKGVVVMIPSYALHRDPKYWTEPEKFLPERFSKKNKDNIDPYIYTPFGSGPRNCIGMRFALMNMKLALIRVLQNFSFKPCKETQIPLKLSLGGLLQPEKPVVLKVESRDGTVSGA

By MBC is commonly meant the smallest concentration meeting the test's criterion for killing. A lower MBC goes with greater bactericidal potency. Usually MIC stands for the smallest concentration in the dilution series that meets the test's criterion for growth inhibition. A low value points to greater potency. The Kd is the concentration at which binding is half-saturated. Broadly, the melting point is the temperature of the solid-liquid transition. For `C=C[C@]1(C)C[C@@H](OC(=O)CNC23CC4CC(CC(C4)C2)C3)[C@]2(C)[C@H](C)CC[C@]3(CCC(=O)[C@H]32)[C@@H](C)[C@@H]1O` [Compound 27, 22-Amantadineyl-22-deoxypleuromutilin], the melting point is 105 to 109 °C. In addition, in the data set on S. aureus (ATCC 29213), the minimal bactericidal concentration (MBC) stood at 1 µg/mL (≈ 1.95 µM) and it took 0.5 µg/mL (≈ 0.977 µM) to inhibit growth (MIC). In data set [1], this molecule registered a minimum bactericidal concentration (MBC) of 0.25 µg/mL (≈ 0.489 µM) and an MIC of 0.25 µg/mL (≈ 0.489 µM). In the data set on 50S ribosome, this molecule yielded an Avg ka of 7.36 M⁻¹ s⁻¹, an Avg kd of 0.0215 s⁻¹ and a Kd of 2920 µM. In the data set with S. aureus (AD3), this molecule came in with an MBC of 4 µg/mL (≈ 7.82 µM) and an MIC of 2 µg/mL (≈ 3.91 µM). Further, in the data set with S. aureus (144), the MBC was found to be 8 µg/mL (≈ 15.6 µM) and the MIC came out at 4 µg/mL (≈ 7.82 µM).

In turn, `C=C[C@]1(C)C[C@@H](OC(=O)CNCCO)[C@]2(C)[C@H](C)CC[C@]3(CCC(=O)[C@H]32)[C@@H](C)[C@@H]1O` [Compound 28, 22-Ethanolamine-22-deoxypleuromutilin] returned a melting point of 91 to 94 °C. In the data set on S. aureus (ATCC 29213), the MBC came to 8 µg/mL (≈ 19 µM) and the minimum inhibitory concentration (MIC) is 2 µg/mL (≈ 4.74 µM). Besides, in data set [1], the MBC stood at 2 µg/mL (≈ 4.74 µM) and the MIC turned out to be 1 µg/mL (≈ 2.37 µM). In the data set on 50S ribosome, this molecule had an Avg ka of 2730 M⁻¹ s⁻¹, an Avg kd of 0.0272 s⁻¹ and a Kd of 9.96 µM. For the same molecule, in the data set with S. aureus (AD3), the minimal bactericidal concentration (MBC) came out at 8 µg/mL (≈ 19 µM) and the minimal inhibitory concentration (MIC) came to 2 µg/mL (≈ 4.74 µM). In the data set on S. aureus (144), this molecule gave a minimum bactericidal concentration (MBC) of 4 µg/mL (≈ 9.49 µM) and an MIC of 4 µg/mL (≈ 9.49 µM).

For the molecule `C=C[C@]1(C)C[C@@H](OC(=O)CN2CCOCC2)[C@]2(C)[C@H](C)CC[C@]3(CCC(=O)[C@H]32)[C@@H](C)[C@@H]1O` [Compound 29, 22-Morpholine-22-deoxypleuromutilin], the melting point lay in the range of 157 to 159 °C. Also, in the data set on S. aureus (ATCC 29213), the MBC is 2 µg/mL (≈ 4.47 µM) and it took 2 µg/mL (≈ 4.47 µM) to inhibit growth (MIC). In data set [1], this molecule gave a minimum bactericidal concentration (MBC) of 1 µg/mL (≈ 2.23 µM) and an MIC of 1 µg/mL (≈ 2.23 µM). Besides, in the data set with 50S ribosome, the Avg ka came out at 1.57 M⁻¹ s⁻¹ and the Avg kd worked out at 0.872 s⁻¹. Moreover, in the data set on S. aureus (AD3), the minimum bactericidal concentration (MBC) was 8 µg/mL (≈ 17.9 µM) and the MIC was determined as 2 µg/mL (≈ 4.47 µM). In the data set with S. aureus (144), this molecule returned an MBC of 4 µg/mL (≈ 8.94 µM) and an MIC of 2 µg/mL (≈ 4.47 µM).

Molecule `C=C[C@]1(C)C[C@@H](OC(=O)CN2CCSCC2)[C@]2(C)[C@H](C)CC[C@]3(CCC(=O)[C@H]32)[C@@H](C)[C@@H]1O` [Compound 30, 22-Thiomorpholine-22-deoxypleuromutilin] showed a melting point of 82 to 83 °C. In the data set on S. aureus (ATCC 29213), this molecule had a minimal bactericidal concentration (MBC) of 2 µg/mL (≈ 4.31 µM) and a minimal inhibitory concentration (MIC) of 1 µg/mL (≈ 2.16 µM). In addition, in [1], the minimum bactericidal concentration (MBC) stood at 2 µg/mL (≈ 4.31 µM) and the MIC came out at 1 µg/mL (≈ 2.16 µM). Besides, in the data set with 50S ribosome, the Avg kd was found to be 0.00021 s⁻¹ and binding was put at a Kd of 7.77 µM. In the data set on S. aureus (AD3), this molecule returned an MBC of 4 µg/mL (≈ 8.63 µM) and a minimal inhibitory concentration (MIC) of 1 µg/mL (≈ 2.16 µM). In addition, in the data set with S. aureus (144), the MBC worked out at 4 µg/mL (≈ 8.63 µM) and the minimal inhibitory concentration (MIC) amounted to 2 µg/mL (≈ 4.31 µM).

A word on the IC50: it is the midpoint of a concentration-inhibition curve. With `C=C[C@]1(C)C[C@@H](OC(=O)CSCCN(CC)CC)[C@]2(C)[C@H](C)CC[C@]3(CCC(=O)[C@H]32)[C@@H](C)[C@@H]1O` [Tiamulin, tiamulin, reference compound], the minimal bactericidal concentration (MBC) against S. aureus (ATCC 29213) stood at 1 µg/mL (≈ 2.03 µM); in data set [1], 0.25 µg/mL (≈ 0.506 µM); against S. aureus (AD3), 1 µg/mL (≈ 2.03 µM); in the data set on S. aureus (144), 8 µg/mL (≈ 16.2 µM). Besides, the MIC against S. aureus (ATCC 29213) was 0.5 µg/mL (≈ 1.01 µM); in data set [1], 0.25 µg/mL (≈ 0.506 µM); with S. aureus (AD3) it was 1 µg/mL (≈ 2.03 µM); with S. aureus (144) it was 1 µg/mL (≈ 2.03 µM). The “reduction of MRSA load in thigh” value in the data set on MRSA is reported as ~ 0.6 log10 CFU/mL. Further, the Avg ka in the data set on 50S ribosome is 121 M⁻¹ s⁻¹. Also, the Avg kd in the data set on 50S ribosome was determined as 3.03e-06 s⁻¹. The molecule further came in with an equilibrium dissociation constant (Kd) at 50S ribosome of 0.025 µM. Also, the IC50 at CYP3A4 and on CYP3A4 (converted with MW) was 1.64 µM throughout. Besides, the results for the PAE in the data set with MRSA ATCC 43300 (2× MIC) and in the data set on MRSA ATCC 43300 (4× MIC) were 1.65 h and 2.04 h, respectively.
